± gives the expanded uncertainty stated by the source.
Experiment: molar heat capacity at constant pressure
Settings: 101.33 kPa, Crystal

Row | molar heat capacity at constant pressure (298.15 K) | molar heat capacity at constant pressure (303.15 K) | molar heat capacity at constant pressure (308.15 K) | molar heat capacity at constant pressure (313.15 K) | molar heat capacity at constant pressure (318.15 K) | molar heat capacity at constant pressure (323.15 K) | molar heat capacity at constant pressure (328.15 K) | molar heat capacity at constant pressure (333.15 K) | molar heat capacity at constant pressure (338.15 K) | molar heat capacity at constant pressure (343.15 K) | Compound
1 | 314.5 ± 9.7 J/K/mol | 321.6 ± 10 J/K/mol | 329 ± 10 J/K/mol | 333.6 ± 10 J/K/mol | 341.1 ± 11 J/K/mol | 347.9 ± 11 J/K/mol | 353.3 ± 11 J/K/mol | 358.4 ± 11 J/K/mol | 363.2 ± 11 J/K/mol | 367.3 ± 11 J/K/mol | Cn1c2c(c(=O)n(C)c1=O)CCCCC2
2 | 212.6 ± 7.2 J/K/mol | 213.5 ± 7.2 J/K/mol | 217.1 ± 7.3 J/K/mol | 218.5 ± 7.4 J/K/mol | 219.8 ± 7.4 J/K/mol | 223.4 ± 7.5 J/K/mol | 228.3 ± 7.6 J/K/mol | 229 ± 7.6 J/K/mol | 236.5 ± 7.8 J/K/mol | 239.6 ± 7.9 J/K/mol | Cc1cc(=O)n(C)c(=O)n1C [1,3,6-trimethyl-2,4(1H,3H)-pyrimidinedione]
3 | 182.5 ± 5.7 J/K/mol | 185.4 ± 5.7 J/K/mol | 188.7 ± 5.8 J/K/mol | 191.2 ± 5.9 J/K/mol | 193.8 ± 6 J/K/mol | 196.4 ± 6.1 J/K/mol | 199.1 ± 6.2 J/K/mol | 201 ± 6.2 J/K/mol | 203.3 ± 6.3 J/K/mol | 206.8 ± 6.4 J/K/mol | Cn1ccc(=O)n(C)c1=O [1,3-dimethyl-2,4-(1H,3H)-pyrimidinedione]
4 | 282.9 ± 8.8 J/K/mol | 291.2 ± 9 J/K/mol | 296.2 ± 9.2 J/K/mol | 305.8 ± 9.5 J/K/mol | 310.9 ± 9.6 J/K/mol | 319.8 ± 9.9 J/K/mol |  |  |  |  | Cn1c2c(c(=O)n(C)c1=O)CCCC2 [1,3-dimethyl-5,6,7,8-tetrahydroquinazoline-2,4(1H,3H)-dione]
5 | 252.9 ± 7.8 J/K/mol | 258.1 ± 8 J/K/mol | 261.8 ± 8.1 J/K/mol |  |  |  |  |  |  |  | Cn1c2c(c(=O)n(C)c1=O)CCC2 [1,3-dimethyl-5,6-trimethyleneuracil]
6 | 187.6 ± 5.8 J/K/mol | 190 ± 5.9 J/K/mol | 190.3 ± 5.9 J/K/mol | 194.1 ± 6 J/K/mol | 194.8 ± 6 J/K/mol | 198.5 ± 6.2 J/K/mol | 199.2 ± 6.2 J/K/mol | 202 ± 6.3 J/K/mol | 203 ± 6.3 J/K/mol | 205.2 ± 6.4 J/K/mol | Cc1cn(C)c(=O)[nH]c1=O [1,5-dimethyluracil]
7 | 188.1 ± 7 J/K/mol | 194.3 ± 7.2 J/K/mol | 197.9 ± 7.2 J/K/mol | 202.6 ± 7.3 J/K/mol | 206.8 ± 7.4 J/K/mol | 211 ± 7.5 J/K/mol | 217.9 ± 7.7 J/K/mol | 225.1 ± 7.9 J/K/mol | 233.1 ± 8 J/K/mol | 239.8 ± 8.2 J/K/mol | Cc1cc(=O)[nH]c(=O)n1C [1,6-dimethyluracil]
8 | 156.9 ± 4.9 J/K/mol | 167.2 ± 5.2 J/K/mol | 179.6 ± 5.6 J/K/mol | 190.9 ± 5.9 J/K/mol | 200.5 ± 6.2 J/K/mol | 211.1 ± 6.5 J/K/mol | 223 ± 6.9 J/K/mol | 235 ± 7.3 J/K/mol | 245.9 ± 7.6 J/K/mol | 256.1 ± 7.9 J/K/mol | Cn1ccc(=O)[nH]c1=O [1-methyl-2,4(1H,3H)-pyrimidinedione]
9 | 244.5 ± 7.9 J/K/mol | 248.8 ± 8 J/K/mol | 254 ± 8.1 J/K/mol | 256.5 ± 8.2 J/K/mol | 260.9 ± 8.3 J/K/mol | 266.7 ± 8.4 J/K/mol | 271.2 ± 8.6 J/K/mol | 276.6 ± 8.7 J/K/mol | 282.3 ± 8.8 J/K/mol | 291.5 ± 9.1 J/K/mol | Cc1c(C)n(C)c(=O)n(C)c1=O [2,4(1H,3H)-pyrimidinedione, 1,3,5,6-tetramethyl-]
10 | 302.7 ± 9.4 J/K/mol | 302.7 ± 9.4 J/K/mol | 302.8 ± 9.4 J/K/mol | 303 ± 9.4 J/K/mol | 306.2 ± 9.5 J/K/mol | 308.4 ± 9.6 J/K/mol |  |  |  |  | CCCc1cn(C)c(=O)n(C)c1=O [2,4(1H,3H)-pyrimidinedione, 1,3-dimethyl-5-propyl-]
11 | 287.2 ± 10 J/K/mol | 288.8 ± 10 J/K/mol | 290.5 ± 10 J/K/mol | 292.2 ± 10 J/K/mol | 293.9 ± 10 J/K/mol | 303.9 ± 10 J/K/mol |  |  |  |  | CCCc1cc(=O)n(C)c(=O)n1C [2,4(1H,3H)-pyrimidinedione, 1,3-dimethyl-6-propyl-]
12 | 358.1 ± 14 J/K/mol | 544.2 ± 22 J/K/mol |  |  |  |  |  |  |  |  | CCCCc1cn(C)c(=O)n(C)c1=O [2,4(1H,3H)-pyrimidinedione, 5-butyl-1,3-dimethyl-]
13 | 241.1 ± 8.5 J/K/mol | 250.1 ± 8.7 J/K/mol | 256.5 ± 8.8 J/K/mol | 261 ± 8.9 J/K/mol | 264.3 ± 9 J/K/mol | 267.4 ± 9.1 J/K/mol | 270.7 ± 9.1 J/K/mol | 275.2 ± 9.3 J/K/mol | 281.7 ± 9.4 J/K/mol | 291.1 ± 9.6 J/K/mol | CCc1cn(C)c(=O)n(C)c1=O [2,4(1H,3H)-pyrimidinedione, 5-ethyl-1,3-dimethyl-]
14 | 296.4 ± 9.2 J/K/mol | 297.9 ± 9.2 J/K/mol | 299.4 ± 9.3 J/K/mol | 300.9 ± 9.3 J/K/mol | 302.1 ± 9.4 J/K/mol | 305.3 ± 9.5 J/K/mol |  |  |  |  | CCCCc1cc(=O)n(C)c(=O)n1C [2,4(1H,3H)-pyrimidinedione, 6-butyl-1,3-dimethyl-]
15 | 241.8 ± 9.6 J/K/mol | 243.4 ± 9.7 J/K/mol | 245.3 ± 9.7 J/K/mol | 246.3 ± 9.7 J/K/mol | 248.3 ± 9.8 J/K/mol | 259.6 ± 10 J/K/mol |  |  |  |  | CCc1cc(=O)n(C)c(=O)n1C [2,4(1H,3H)-pyrimidinedione, 6-ethyl-1,3-dimethyl-]
16 | 131.8 ± 4.7 J/K/mol | 135.5 ± 4.7 J/K/mol | 140.9 ± 4.9 J/K/mol | 143 ± 4.9 J/K/mol | 146.1 ± 5 J/K/mol | 149 ± 5.1 J/K/mol | 151.8 ± 5.1 J/K/mol | 154.3 ± 5.2 J/K/mol | 156.8 ± 5.2 J/K/mol | 157.4 ± 5.3 J/K/mol | O=c1cc[nH]c(=O)[nH]1 [2,4(1H,3H)-pyrimidinedione]
17 | 191.1 ± 5.9 J/K/mol | 198.3 ± 6.1 J/K/mol | 203.2 ± 6.3 J/K/mol | 208 ± 6.4 J/K/mol | 212 ± 6.6 J/K/mol | 215.6 ± 6.7 J/K/mol | 219.1 ± 6.8 J/K/mol | 223.3 ± 6.9 J/K/mol | 229.3 ± 7.1 J/K/mol | 234.1 ± 7.3 J/K/mol | Cc1nc(O)nc(O)c1C [2,4-dihydroxy-5,6-dimethylpyrimidine]
18 | 162.5 ± 5 J/K/mol | 167.2 ± 5.2 J/K/mol | 170.2 ± 5.3 J/K/mol | 172.2 ± 5.3 J/K/mol | 176.9 ± 5.5 J/K/mol | 181.4 ± 5.6 J/K/mol | 183 ± 5.7 J/K/mol | 187.3 ± 5.8 J/K/mol | 190.4 ± 5.9 J/K/mol | 193 ± 6 J/K/mol | Cc1cc(O)nc(O)n1 [2,4-dihydroxy-6-methylpyrimidine]
